Experiments:
A498 (Kidney) = test: WST-1 anticancer cell proliferation assay, A498; type: cell-based; conditions: 72 hours
Description: (§1) Bioactivity of the above-described compounds has been verified by an anticancer cell proliferation assay using the WST-1 (4-[3-(4-iodophenyl)-2-(4-nitrophenyl)-2H-5-tetrazolio]-1, 3-benzene disulfonate) colorimetric assay by Roche Life Sciences®. Anticancer activity was tested against several standard cancer cell lines including brain, breast, Kaposi sarcoma, leukemia, lung, melanoma, tenosynovial giant cell tumor, ovarian, pancreatic, colon and prostate cancer. Cells were trypsinized and plated into 96 well plates in 50 μl of media and incubated overnight. The next day approximately 18 hours after plating, 50 μl of media containing the required flavonoid-based pharmaceutical composition was added per well. Cells were plated at a density so that 72 hours post drug addition, the cells will be in log phase (500)-2000 cells/well). The compounds and extracts were solubilized in Dimethyl sulfoxide (DMSO). The cells are allowed to proliferate for 72 hours 37° C. in humidified atmosphere of 5% CO2. The experiment is terminated using WST-1 (Roche®) 10 μl per well and absorbance is read at 450 nm %690 nm. The effect of drugs on growth is assessed as percent of cell viability. The IC50 values were determined from the extract dose versus control growth curves using Graphpad Prism® software. All experiments were carried out in duplicate and the mean results determined.

A549 (Lung) = test: WST-1 anticancer cell proliferation assay, A549; type: cell-based; conditions: 72 hours
Description: as §1

COLO-205 (Colon) = test: WST-1 anticancer cell proliferation assay, COLO-205; type: cell-based; conditions: 72 hours
Description: as §1

DLD-1 (Colon) = test: WST-1 anticancer cell proliferation assay, DLD-1; type: cell-based; conditions: 72 hours
Description: as §1

IGROV-1 (Ovarian) = test: WST-1 anticancer cell proliferation assay, IGROV-1; type: cell-based; conditions: 72 hours
Description: as §1

MCF-7 (Breast) = test: WST-1 anticancer cell proliferation assay, MCF-7; type: cell-based; conditions: 72 hours
Description: as §1

MiaPaca-2 (Pancreatic) = test: WST-1 anticancer cell proliferation assay, MiaPaca-2; type: cell-based; conditions: 72 hours
Description: as §1

PC-3 (Prostate) = test: WST-1 anticancer cell proliferation assay, PC-3; type: cell-based; conditions: 72 hours
Description: as §1

RL (Lymphoma) = test: WST-1 anticancer cell proliferation assay, RL; type: cell-based; conditions: 72 hours
Description: as §1

UACC-62 (Melanoma) = test: WST-1 anticancer cell proliferation assay, UACC-62; type: cell-based; conditions: 72 hours
Description: as §1

BRD2 = BRD2 (Homo sapiens, UniProt P25440); test: Inhibition of bromodomains, BRD2; type: binding; conditions: Table 3 Bromodomain
Sequence of BRD2 (P25440 whole entry): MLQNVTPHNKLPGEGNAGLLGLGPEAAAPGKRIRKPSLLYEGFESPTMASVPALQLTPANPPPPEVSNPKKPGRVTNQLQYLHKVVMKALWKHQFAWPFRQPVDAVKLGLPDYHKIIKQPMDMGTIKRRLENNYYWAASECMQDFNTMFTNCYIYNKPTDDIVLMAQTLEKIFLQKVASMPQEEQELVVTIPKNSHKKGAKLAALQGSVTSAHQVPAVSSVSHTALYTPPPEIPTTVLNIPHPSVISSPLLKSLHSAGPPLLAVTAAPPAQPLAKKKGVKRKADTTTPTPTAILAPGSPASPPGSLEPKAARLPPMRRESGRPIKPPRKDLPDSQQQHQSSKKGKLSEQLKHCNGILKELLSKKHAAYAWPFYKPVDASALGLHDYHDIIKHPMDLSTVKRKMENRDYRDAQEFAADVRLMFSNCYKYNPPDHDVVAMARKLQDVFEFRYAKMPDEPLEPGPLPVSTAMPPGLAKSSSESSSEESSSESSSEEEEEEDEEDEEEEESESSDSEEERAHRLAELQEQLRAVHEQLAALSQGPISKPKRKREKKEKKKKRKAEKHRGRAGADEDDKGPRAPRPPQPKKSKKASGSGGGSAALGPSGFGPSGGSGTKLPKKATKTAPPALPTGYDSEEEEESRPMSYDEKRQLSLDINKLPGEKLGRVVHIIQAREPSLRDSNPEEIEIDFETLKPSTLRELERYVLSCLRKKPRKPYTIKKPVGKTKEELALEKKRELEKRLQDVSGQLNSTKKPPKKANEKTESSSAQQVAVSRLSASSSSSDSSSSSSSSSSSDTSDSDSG
Description: (§2) Inhibition of Sirtuins, Matrix Metalloproteinase, Bromodomains was Also Confirmed Using Standard Protocols and the Results are Present in Table 2.

BRD4 = BRD4 (Homo sapiens, UniProt O60885); test: Inhibition of bromodomains, BRD4; type: binding; conditions: Table 3 Bromodomain
Description: as §2

MMP-2 = MMP-2 (Homo sapiens, UniProt P08253); test: Inhibition of matrix metalloproteinase, MMP-2; type: biochemical; conditions: Table 3 Matrix metalloproteinase
Sequence of MMP-2 (P08253 110-660): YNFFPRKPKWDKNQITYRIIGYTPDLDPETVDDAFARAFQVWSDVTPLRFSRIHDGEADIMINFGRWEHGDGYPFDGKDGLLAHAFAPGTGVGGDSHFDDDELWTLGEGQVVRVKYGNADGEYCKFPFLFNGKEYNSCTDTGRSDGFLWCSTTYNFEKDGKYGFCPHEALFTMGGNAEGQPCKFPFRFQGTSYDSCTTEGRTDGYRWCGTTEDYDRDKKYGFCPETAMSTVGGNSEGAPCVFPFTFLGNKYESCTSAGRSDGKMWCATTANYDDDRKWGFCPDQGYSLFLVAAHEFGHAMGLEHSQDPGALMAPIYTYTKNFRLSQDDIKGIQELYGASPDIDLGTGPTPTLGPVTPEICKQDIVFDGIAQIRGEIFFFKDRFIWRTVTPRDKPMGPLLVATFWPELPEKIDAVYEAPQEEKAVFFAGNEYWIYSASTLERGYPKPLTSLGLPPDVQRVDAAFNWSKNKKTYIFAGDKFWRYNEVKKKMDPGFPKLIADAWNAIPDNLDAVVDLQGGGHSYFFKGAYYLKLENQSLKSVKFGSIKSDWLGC
Description: as §2

MMP-7 = MMP-7 (Homo sapiens, UniProt P09237); test: Inhibition of matrix metalloproteinase, MMP-7; type: biochemical; conditions: Table 3 Matrix metalloproteinase
Sequence of MMP-7 (P09237 95-267): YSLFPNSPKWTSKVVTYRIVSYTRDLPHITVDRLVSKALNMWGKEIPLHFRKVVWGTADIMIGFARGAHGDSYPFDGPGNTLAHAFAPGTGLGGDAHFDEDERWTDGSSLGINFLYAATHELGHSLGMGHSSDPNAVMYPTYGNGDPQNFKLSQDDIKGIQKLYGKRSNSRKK
Description: as §2

CMK (leukemia) = test: WST-1 anticancer cell proliferation assay, CMK; type: cell-based; conditions: 72 hours
Description: as §1

HC-1 (Leukemia) = test: WST-1 anticancer cell proliferation assay, HC-1; type: cell-based; conditions: 72 hours
Description: as §1

HeLa (cervical) = test: WST-1 anticancer cell proliferation assay, HeLa; type: cell-based; conditions: 72 hours
Description: as §1

MOLT-4 (Leukemia) = test: WST-1 anticancer cell proliferation assay, MOLT-4; type: cell-based; conditions: 72 hours
Description: as §1

SNU-16 (Stomach) = test: WST-1 anticancer cell proliferation assay, SNU-16; type: cell-based; conditions: 72 hours
Description: as §1

U2-OS (Bone) = test: WST-1 anticancer cell proliferation assay, U2-OS; type: cell-based; conditions: 72 hours
Description: as §1

[1] = system: CFPAC-1 pancreatic cancer xenograft; test: Human pancreatic cancer xenograft CFPAC-1 in scid mice; type: in vivo; conditions: CFPAC-1 cells implanted on scid mice
Description: The results of the anticancer activity are presented in Tables 3 and 4 (above) and in FIG. 6, Hela cells shown at (A) and CMK cells at (B) and MV4-11 and MOLT-14 acute myeloid leukemia cells.

MMP-3 = MMP-3 (Homo sapiens, UniProt P08254); test: Inhibition of matrix metalloproteinase, MMP-3; type: biochemical; conditions: Table 3 Matrix metalloproteinase
Sequence of MMP-3 (P08254 100-477): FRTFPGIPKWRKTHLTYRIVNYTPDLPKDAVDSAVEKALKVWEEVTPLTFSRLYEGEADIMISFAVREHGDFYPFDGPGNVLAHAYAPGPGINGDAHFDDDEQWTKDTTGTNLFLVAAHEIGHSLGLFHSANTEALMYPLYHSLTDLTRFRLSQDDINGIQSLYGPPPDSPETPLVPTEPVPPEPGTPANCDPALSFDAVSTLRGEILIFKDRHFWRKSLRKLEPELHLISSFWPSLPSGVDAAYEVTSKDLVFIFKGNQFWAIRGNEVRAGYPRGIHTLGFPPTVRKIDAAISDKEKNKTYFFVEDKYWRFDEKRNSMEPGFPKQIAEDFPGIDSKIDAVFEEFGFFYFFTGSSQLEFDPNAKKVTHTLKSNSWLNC
Description: as §2

MMP-9 = MMP-9 (Homo sapiens, UniProt P14780); test: Inhibition of matrix metalloproteinase, MMP-9; type: biochemical; conditions: Table 3 Matrix metalloproteinase
Sequence of MMP-9 (P14780 94-707): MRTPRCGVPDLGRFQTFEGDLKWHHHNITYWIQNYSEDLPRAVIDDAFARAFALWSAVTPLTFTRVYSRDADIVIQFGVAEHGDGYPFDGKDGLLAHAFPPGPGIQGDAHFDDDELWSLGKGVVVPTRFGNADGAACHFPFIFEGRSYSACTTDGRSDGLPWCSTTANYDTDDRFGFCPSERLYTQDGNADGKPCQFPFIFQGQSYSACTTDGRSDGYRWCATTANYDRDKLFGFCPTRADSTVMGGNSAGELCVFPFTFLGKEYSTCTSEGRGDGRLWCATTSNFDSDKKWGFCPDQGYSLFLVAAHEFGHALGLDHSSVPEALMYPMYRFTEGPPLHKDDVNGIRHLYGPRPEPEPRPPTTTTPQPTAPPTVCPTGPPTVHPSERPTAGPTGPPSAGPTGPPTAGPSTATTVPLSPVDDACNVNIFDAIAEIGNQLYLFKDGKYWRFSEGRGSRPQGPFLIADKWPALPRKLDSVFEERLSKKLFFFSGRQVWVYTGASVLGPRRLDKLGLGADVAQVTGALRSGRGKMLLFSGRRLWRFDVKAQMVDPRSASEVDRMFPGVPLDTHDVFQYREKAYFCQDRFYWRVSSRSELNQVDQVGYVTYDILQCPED
Description: as §2

BCL-2 = BCL-2 (Homo sapiens, UniProt P10415); test: BCL-2 inhibition; type: binding; conditions: Table 3
Sequence of BCL-2 (P10415 whole entry): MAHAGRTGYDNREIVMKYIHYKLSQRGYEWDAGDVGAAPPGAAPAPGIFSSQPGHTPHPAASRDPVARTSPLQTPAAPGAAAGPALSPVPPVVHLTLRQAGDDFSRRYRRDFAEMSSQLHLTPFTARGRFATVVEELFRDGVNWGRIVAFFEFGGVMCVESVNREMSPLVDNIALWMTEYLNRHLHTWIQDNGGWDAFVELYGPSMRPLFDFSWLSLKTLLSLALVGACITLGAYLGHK

## COc1cc(-c2cc(=O)c3c(O)c(C/C=C(\C)CCC=C(C)C)c(O)cc3o2)ccc1O [FBL-03A]
A498 (Kidney)
  IC50: 17 µM
A549 (Lung)
  IC50: 17 µM
COLO-205 (Colon)
  IC50: 27 µM
DLD-1 (Colon)
  IC50: 15 µM
IGROV-1 (Ovarian)
  IC50: 29 µM
MCF-7 (Breast)
  IC50: 17 µM
MiaPaca-2 (Pancreatic)
  IC50: 16 µM
PC-3 (Prostate)
  IC50: 26 µM
RL (Lymphoma)
  IC50: 5.9 µM
UACC-62 (Melanoma)
  IC50: 27 µM

## COc1cc(-c2cc(=O)c3c(O)cc(O)c(C/C=C(\C)CCC=C(C)C)c3o2)ccc1O [FBL-03C]
A498 (Kidney)
  IC50: 14 µM
A549 (Lung)
  IC50: 9.4 µM
COLO-205 (Colon)
  IC50: 17 µM
DLD-1 (Colon)
  IC50: 13 µM
IGROV-1 (Ovarian)
  IC50: 15 µM
MCF-7 (Breast)
  IC50: 12 µM
MiaPaca-2 (Pancreatic)
  IC50: 9.5 µM
PC-3 (Prostate)
  IC50: 20 µM
RL (Lymphoma)
  IC50: 12 µM
UACC-62 (Melanoma)
  IC50: 14 µM

## COc1cc(-c2cc(=O)c3c(O)c(CC=C(C)C)c(O)cc3o2)ccc1O [FBL-03B]
BRD2
  IC50: 9.52 µM
BRD4
  IC50: 10.4 µM
MMP-2
  IC50: 115 µM
MMP-7
  IC50: 17.5 µM
CMK (leukemia)
  IC50: 11.6 µM
HC-1 (Leukemia)
  IC50: 29.7 µM
HeLa (cervical)
  IC50: 10.4 µM
MOLT-4 (Leukemia)
  IC50: 13.2 µM
SNU-16 (Stomach)
  IC50: 15 µM
U2-OS (Bone)
  IC50: 19.4 µM
[1]
  inhibition of tumor compared to the control: significant inhibition of tumor

## COc1cc(-c2cc(=O)c3c(O)cc(O)c(CC=C(C)C)c3o2)ccc1O [FBL-03G]
BRD2
  IC50: 12 µM
BRD4
  IC50: 6.14 µM
MMP-2
  IC50: 6.64 µM
MMP-3
  IC50: 66.3 µM
MMP-7
  IC50: 3.35 µM
MMP-9
  IC50: 85.4 µM
BCL-2
  IC50: 2.49 µM
CMK (leukemia)
  IC50: 1.78 µM
HC-1 (Leukemia)
  IC50: 5 µM
HeLa (cervical)
  IC50: 2.53 µM
MOLT-4 (Leukemia)
  IC50: 20 µM
SNU-16 (Stomach)
  IC50: 4.09 µM
U2-OS (Bone)
  IC50: 8.7 µM
[1]
  inhibition of tumor compared to the control: significant inhibition of tumor

From patent publication US20180353462A1, “[…] AGENTS […] FLAVONOID DERIVATIVES TARGETING KINASES, SIRTUINS AND ONCOGENIC AGENTS FOR THE TREATMENT OF CANCERS” (priority 2015, published 2018)
